{"source": "paper PMC5802278", "about": "“Molecular and cellular mechanisms of HIF prolyl hydroxylase inhibitors in clinical trials” (Chemical Science, 2017)", "assay_type_in_all_cases": "biochemical", "key": {"JARID1A (KDM5A)": {"target": "T1, JARID1A (KDM5A) (Homo sapiens, UniProt P29375)", "T1 sequence (P29375 12-797 limits assumed)": "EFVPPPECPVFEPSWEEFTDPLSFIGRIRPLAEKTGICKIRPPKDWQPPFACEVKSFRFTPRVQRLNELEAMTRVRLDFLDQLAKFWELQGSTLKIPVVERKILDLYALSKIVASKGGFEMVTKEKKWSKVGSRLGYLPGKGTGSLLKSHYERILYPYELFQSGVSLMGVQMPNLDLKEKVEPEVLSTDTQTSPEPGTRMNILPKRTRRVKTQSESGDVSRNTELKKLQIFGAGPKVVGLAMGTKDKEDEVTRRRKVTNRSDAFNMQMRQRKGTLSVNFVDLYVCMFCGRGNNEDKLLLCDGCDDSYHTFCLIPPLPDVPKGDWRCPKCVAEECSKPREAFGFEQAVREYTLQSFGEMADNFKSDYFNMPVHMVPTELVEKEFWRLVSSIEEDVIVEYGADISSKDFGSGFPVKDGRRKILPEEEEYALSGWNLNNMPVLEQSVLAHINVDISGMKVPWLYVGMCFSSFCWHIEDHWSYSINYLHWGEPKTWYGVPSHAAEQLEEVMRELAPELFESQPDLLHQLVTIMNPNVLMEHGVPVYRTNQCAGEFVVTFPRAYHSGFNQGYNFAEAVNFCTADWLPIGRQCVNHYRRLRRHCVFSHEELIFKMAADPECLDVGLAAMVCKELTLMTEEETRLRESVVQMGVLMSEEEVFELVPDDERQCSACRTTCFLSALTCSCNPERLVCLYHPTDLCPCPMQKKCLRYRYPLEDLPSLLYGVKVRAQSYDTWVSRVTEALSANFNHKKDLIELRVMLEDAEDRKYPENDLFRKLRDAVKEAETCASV", "test": "AlphaScreen histone demethylase assay"}, "JMJD3 (KDM6B)": {"target": "JMJD3 (KDM6B) (Homo sapiens, UniProt O15054)", "sequence (O15054 whole entry)": "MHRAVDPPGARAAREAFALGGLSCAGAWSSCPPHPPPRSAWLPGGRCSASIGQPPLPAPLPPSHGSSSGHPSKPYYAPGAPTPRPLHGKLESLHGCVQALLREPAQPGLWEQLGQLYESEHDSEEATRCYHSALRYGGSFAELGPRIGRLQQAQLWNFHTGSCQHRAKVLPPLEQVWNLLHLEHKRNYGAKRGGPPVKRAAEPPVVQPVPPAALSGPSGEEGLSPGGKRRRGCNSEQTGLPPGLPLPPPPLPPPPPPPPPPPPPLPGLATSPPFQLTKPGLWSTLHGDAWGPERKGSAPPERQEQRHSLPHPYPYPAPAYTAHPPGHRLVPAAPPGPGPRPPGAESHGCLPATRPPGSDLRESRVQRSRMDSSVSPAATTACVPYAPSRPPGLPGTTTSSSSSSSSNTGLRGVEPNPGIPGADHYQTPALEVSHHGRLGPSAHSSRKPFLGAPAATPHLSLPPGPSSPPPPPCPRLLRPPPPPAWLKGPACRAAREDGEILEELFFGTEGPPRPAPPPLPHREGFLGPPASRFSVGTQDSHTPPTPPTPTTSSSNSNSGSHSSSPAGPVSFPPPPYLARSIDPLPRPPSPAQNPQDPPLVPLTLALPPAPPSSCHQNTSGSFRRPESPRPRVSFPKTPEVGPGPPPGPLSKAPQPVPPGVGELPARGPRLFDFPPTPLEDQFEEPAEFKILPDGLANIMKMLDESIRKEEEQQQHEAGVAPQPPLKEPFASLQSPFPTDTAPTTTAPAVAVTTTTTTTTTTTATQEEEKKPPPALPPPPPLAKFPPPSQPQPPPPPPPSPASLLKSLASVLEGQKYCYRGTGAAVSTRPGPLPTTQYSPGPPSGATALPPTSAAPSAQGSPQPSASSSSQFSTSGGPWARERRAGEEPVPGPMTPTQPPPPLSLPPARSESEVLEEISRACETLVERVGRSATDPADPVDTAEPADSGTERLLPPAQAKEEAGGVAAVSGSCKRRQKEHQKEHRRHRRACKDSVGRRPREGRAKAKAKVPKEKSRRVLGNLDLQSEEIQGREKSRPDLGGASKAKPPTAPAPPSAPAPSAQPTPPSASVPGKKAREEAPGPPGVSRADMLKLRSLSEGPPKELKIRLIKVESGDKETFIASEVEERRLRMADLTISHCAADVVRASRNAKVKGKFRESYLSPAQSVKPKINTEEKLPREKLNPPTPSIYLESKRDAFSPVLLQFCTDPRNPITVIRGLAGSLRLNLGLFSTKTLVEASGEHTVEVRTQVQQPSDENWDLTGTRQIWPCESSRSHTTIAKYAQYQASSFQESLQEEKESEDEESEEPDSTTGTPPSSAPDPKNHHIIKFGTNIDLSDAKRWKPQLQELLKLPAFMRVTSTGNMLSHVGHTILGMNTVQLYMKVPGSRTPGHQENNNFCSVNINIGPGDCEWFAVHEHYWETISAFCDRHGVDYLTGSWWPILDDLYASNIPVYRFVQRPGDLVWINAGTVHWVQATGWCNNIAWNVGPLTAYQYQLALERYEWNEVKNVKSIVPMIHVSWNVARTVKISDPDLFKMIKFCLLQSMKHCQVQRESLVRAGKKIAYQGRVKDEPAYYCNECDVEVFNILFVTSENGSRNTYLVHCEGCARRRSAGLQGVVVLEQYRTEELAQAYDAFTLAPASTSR", "test": "AlphaScreen histone demethylase assay", "description": "Protocols for in vitro PHD1–3 MALDI-TOF MS hydroxylation assays[30] and for the AlphaScreen histone demethylase assays[44] were as reported."}, "OGFOD1": {"target": "T2, OGFOD1 (Homo sapiens, UniProt Q8N543)", "T2 construct": "made in house", "T2 sequence (Q8N543 1-542)": "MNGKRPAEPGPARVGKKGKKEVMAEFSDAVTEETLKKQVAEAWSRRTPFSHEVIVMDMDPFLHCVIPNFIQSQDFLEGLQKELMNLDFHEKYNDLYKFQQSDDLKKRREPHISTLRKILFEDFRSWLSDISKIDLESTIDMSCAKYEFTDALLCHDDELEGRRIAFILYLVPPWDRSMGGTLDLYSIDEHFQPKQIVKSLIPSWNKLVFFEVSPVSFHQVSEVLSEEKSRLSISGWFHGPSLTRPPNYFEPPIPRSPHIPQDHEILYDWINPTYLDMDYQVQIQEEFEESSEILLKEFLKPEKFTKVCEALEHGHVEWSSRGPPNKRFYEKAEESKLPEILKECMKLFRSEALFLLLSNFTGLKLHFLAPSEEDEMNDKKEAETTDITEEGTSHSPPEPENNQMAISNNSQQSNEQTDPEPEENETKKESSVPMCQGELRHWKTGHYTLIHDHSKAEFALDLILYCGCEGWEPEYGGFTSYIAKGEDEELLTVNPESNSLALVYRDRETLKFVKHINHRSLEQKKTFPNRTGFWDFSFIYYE", "test": "MALDI-TOF MS OGFOD1 hydroxylation assay", "experimental": "MALDI-TOF MS OGFOD1 hydroxylation assays\nRecombinant human OGFOD1 was prepared as reported,11 and stored at -80 °C in 50 mM HEPES (pH 7.5), 150 mM NaCl, 1 mM DTT and 5% (w/v) glycerol after purification with immobilized metal affinity chromatography. Activity assays were performed by determining the extent of hydroxylation of a 20-residue fragment of human RPS23 containing amino acid […]\nresidues 51-70 (H2N-[…]-CONH2) by matrix-assisted laser desorption/ionisation time-of-flight mass spectrometry (MALDI-TOF MS) using a Waters® Micromass® MALDI micro MX™ mass spectrometer and MassLynx™ 4.1 as described 12.\nThe optimised hydroxylation assay involved incubation of OGFOD1 (1 μM) with inhibitor (1 % v/v in DMSO) in the presence of Fe(II) (50 μM), 2OG (25 μM), L-ascorbic acid (100 μM) and RPS2351-70 (25 μM) in HEPES (50 mM, pH 7.5) at 37 °C for 15 min. Reagent solution were made as previously reported. (64) Reactions were quenched with formic acid (1 % v/v).\nSamples were prepared by mixing reaction mixture (1 μL) with α-cyano-4-hydrocinnamic acid (CHCA) solution (water:acetonitrile 1:1) (1 μL). Dose-response was assessed in 8-point triplicates. Data were analysed using GraphPad Prism 5.04. […]\nFig. S12. In vitro OGFOD1 selectivity profiling of PHD inhibitors. Inhibition of PHD inhibitors against human OGFOD1 as assayed by MALDI11,13 -TOF MS (the protocol is described in the Supplemental Materials and Methods section). No enzyme and DMSO controls were used for the normalisation of RPS23 peptide hydroxylation. Eight concentrations were used to obtained dose-response curve for each compound. Data points presented in the graph are means with standard deviation, n=3. IC50 values (listed in Table 2) were calculated using GraphPad […]\n(1 picture or pasted object on this page, not shown here)"}, "JARID1D (KDM5D)": {"target": "JARID1D (KDM5D) (Homo sapiens, UniProt Q9BY66)", "sequence (Q9BY66 whole entry)": "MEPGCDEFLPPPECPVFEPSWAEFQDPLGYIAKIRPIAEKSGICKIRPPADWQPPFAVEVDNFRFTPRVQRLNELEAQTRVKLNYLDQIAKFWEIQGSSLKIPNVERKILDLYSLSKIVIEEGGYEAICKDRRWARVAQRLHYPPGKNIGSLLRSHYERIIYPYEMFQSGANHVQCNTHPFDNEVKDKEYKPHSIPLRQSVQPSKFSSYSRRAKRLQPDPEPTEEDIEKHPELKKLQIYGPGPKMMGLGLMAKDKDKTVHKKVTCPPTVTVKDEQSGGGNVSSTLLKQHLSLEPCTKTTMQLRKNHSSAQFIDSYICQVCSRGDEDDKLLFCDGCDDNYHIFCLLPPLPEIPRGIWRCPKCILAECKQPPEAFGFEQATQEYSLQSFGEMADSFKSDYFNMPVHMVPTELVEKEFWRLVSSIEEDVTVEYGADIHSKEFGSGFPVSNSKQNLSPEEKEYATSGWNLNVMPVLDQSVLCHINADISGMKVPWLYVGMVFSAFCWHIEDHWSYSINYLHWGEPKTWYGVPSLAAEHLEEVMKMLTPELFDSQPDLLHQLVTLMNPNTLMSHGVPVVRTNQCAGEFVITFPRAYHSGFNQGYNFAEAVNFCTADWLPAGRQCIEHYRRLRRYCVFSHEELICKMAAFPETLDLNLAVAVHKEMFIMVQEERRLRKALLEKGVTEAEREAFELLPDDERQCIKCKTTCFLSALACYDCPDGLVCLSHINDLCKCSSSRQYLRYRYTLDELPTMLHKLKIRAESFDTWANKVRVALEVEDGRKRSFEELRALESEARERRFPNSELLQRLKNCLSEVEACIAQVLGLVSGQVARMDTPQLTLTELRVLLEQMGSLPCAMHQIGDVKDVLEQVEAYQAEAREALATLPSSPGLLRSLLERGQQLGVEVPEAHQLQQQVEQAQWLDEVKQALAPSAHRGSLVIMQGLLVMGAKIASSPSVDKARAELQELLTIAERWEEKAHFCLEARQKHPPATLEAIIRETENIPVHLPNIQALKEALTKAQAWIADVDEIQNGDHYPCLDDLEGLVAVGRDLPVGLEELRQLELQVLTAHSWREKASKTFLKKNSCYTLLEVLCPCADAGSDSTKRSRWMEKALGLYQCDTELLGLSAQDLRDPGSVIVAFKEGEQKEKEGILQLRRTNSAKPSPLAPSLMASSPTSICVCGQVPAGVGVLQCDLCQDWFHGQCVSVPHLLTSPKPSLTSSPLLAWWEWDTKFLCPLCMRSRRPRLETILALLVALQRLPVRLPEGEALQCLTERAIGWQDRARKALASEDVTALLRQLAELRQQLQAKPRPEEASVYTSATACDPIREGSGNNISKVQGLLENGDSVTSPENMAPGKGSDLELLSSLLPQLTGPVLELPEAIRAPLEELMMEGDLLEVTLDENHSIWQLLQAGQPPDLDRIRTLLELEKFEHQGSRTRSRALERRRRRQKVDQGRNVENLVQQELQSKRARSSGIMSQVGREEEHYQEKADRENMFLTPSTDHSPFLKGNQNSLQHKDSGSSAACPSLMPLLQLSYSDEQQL", "test": "AlphaScreen histone demethylase assay"}, "[1]": {"conditions": "isolated recombinant enzyme, 1 μM, read-out: IC50 OGFOD1"}}, "note": "Like-named read-outs stand apart in the source and are kept apart here.", "data": [{"smiles": "CC(C)(C)OC(=O)c1ccc(-n2[nH]cc(-n3ccnn3)c2=O)nc1", "note": "[IOX4]", "values": [{"measurement": "IC50", "setting": "JARID1A (KDM5A); read-out: IC50 JARID1A (KDM5A)", "result": 53, "unit": "µM"}, {"measurement": "IC50", "setting": "JMJD3 (KDM6B); read-out: IC50 JMJD3 (KDM6B)", "result": "< 1", "unit": "µM"}, {"measurement": "IC50", "setting": "OGFOD1; [1]", "result": "< 1", "unit": "µM"}, {"measurement": "IC50", "setting": "JARID1D (KDM5D); read-out: IC50 JARID1D (KDM5D)", "result": 91, "unit": "µM"}]}, {"smiles": "O=C(O)CNC(=O)c1ncc(-c2cccc(Cl)c2)cc1O", "note": "[Vadadustat]", "values": [{"measurement": "IC50", "setting": "JARID1A (KDM5A); read-out: IC50 JARID1A (KDM5A)", "result": "> 100", "unit": "µM"}, {"measurement": "IC50", "setting": "JMJD3 (KDM6B); read-out: IC50 JMJD3 (KDM6B)", "result": 37, "unit": "µM"}, {"measurement": "IC50", "setting": "OGFOD1; [1]", "result": 1.4, "unit": "µM"}, {"measurement": "IC50", "setting": "JARID1D (KDM5D); read-out: IC50 JARID1D (KDM5D)", "result": "> 100", "unit": "µM"}]}, {"smiles": "Cc1nc(C(=O)NCC(=O)O)c(O)c2ccc(Oc3ccccc3)cc12", "note": "[FG-4592]", "values": [{"measurement": "IC50", "setting": "JARID1A (KDM5A); read-out: IC50 JARID1A (KDM5A)", "result": "> 100", "unit": "µM"}, {"measurement": "IC50", "setting": "JMJD3 (KDM6B); read-out: IC50 JMJD3 (KDM6B)", "result": "> 100", "unit": "µM"}, {"measurement": "IC50", "setting": "OGFOD1; [1]", "result": "< 1", "unit": "µM"}, {"measurement": "IC50", "setting": "JARID1D (KDM5D); read-out: IC50 JARID1D (KDM5D)", "result": "> 100", "unit": "µM"}]}, {"smiles": "O=C(O)CNC(=O)C1C(=O)N(C2CCCCC2)C(=O)N(C2CCCCC2)C1=O", "note": "[GSK1278863]", "values": [{"measurement": "IC50", "setting": "JARID1A (KDM5A)", "result": "> 100", "unit": "µM"}, {"measurement": "IC50", "setting": "JMJD3 (KDM6B)", "result": "> 100", "unit": "µM"}, {"measurement": "IC50", "setting": "OGFOD1", "result": 2.1, "unit": "µM"}, {"measurement": "IC50", "setting": "JARID1D (KDM5D)", "result": "> 100", "unit": "µM"}]}, {"smiles": "O=c1c(-n2ccnn2)c[nH]n1-c1cc(N2CCOCC2)ncn1", "note": "[Molidustat]", "values": [{"measurement": "IC50", "setting": "JARID1A (KDM5A); read-out: IC50 JARID1A (KDM5A)", "result": "> 100", "unit": "µM"}, {"measurement": "IC50", "setting": "JMJD3 (KDM6B); read-out: IC50 JMJD3 (KDM6B)", "result": 35, "unit": "µM"}, {"measurement": "IC50", "setting": "OGFOD1; [1]", "result": 5.1, "unit": "µM"}, {"measurement": "IC50", "setting": "JARID1D (KDM5D); read-out: IC50 JARID1D (KDM5D)", "result": "> 100", "unit": "µM"}]}]}
